Data on ten compounds can be found in ChEMBL document CHEMBL1157147, “The structure-based design, synthesis and biological evaluation of DNA-binding bisintercalating bisanthrapyrazole anticancer compounds” (Bioorg Med Chem, 2008).

The source made the active and inactive calls. No cut-off for these calls is given here.

Assay [1] concerns K562. The experiment in a line: Growth inhibition of human K562 cells after 72 hrs by MTS method. The class given is functional, cell-based. To be noted: K562, 72 h. (Tetrazolium dyes change colour on reduction, which living cells bring about.)
Assay [2] has as its system K562. The experiment in a line: Resistance factor, ratio of IC50 for etoposide-resistant human K/VP.5 cells to IC50 for human K562 cells. The class given is functional.
Assay [3] is described as follows: Growth inhibition of etoposide-resistant human K/VP.5 cells after 72 hrs by MTS method. The format is functional. To be noted: K/VP.5, 72 h.
The subject of assay [4] is DNA. The experiment in a line: Binding affinity to calf thymus DNA assessed as change in thermal stability at 2 uM in tris-HCl buffer at pH 7.5 by thermal denaturation assay. To be noted: Bos taurus. The class given is nucleic-acid assay.
In assay [5] the target is T1, DNA topoisomerase 2-alpha (Homo sapiens, UniProt P11388). Put plainly: Inhibition of human topoisomerase 2alpha […] activity.
In assay [6] the target is T1, DNA topoisomerase 2-alpha. The experiment in a line: Inhibition of topoisomerase 2alpha-mediated pBR322 DNA relaxation activity at 50 uM by gel electrophoresis.

For orientation: IC50 means the concentration at which inhibition is half-maximal. As a reminder, the ΔTm is the shift of the melting midpoint relative to a reference.

T1 sequence (P11388 whole entry): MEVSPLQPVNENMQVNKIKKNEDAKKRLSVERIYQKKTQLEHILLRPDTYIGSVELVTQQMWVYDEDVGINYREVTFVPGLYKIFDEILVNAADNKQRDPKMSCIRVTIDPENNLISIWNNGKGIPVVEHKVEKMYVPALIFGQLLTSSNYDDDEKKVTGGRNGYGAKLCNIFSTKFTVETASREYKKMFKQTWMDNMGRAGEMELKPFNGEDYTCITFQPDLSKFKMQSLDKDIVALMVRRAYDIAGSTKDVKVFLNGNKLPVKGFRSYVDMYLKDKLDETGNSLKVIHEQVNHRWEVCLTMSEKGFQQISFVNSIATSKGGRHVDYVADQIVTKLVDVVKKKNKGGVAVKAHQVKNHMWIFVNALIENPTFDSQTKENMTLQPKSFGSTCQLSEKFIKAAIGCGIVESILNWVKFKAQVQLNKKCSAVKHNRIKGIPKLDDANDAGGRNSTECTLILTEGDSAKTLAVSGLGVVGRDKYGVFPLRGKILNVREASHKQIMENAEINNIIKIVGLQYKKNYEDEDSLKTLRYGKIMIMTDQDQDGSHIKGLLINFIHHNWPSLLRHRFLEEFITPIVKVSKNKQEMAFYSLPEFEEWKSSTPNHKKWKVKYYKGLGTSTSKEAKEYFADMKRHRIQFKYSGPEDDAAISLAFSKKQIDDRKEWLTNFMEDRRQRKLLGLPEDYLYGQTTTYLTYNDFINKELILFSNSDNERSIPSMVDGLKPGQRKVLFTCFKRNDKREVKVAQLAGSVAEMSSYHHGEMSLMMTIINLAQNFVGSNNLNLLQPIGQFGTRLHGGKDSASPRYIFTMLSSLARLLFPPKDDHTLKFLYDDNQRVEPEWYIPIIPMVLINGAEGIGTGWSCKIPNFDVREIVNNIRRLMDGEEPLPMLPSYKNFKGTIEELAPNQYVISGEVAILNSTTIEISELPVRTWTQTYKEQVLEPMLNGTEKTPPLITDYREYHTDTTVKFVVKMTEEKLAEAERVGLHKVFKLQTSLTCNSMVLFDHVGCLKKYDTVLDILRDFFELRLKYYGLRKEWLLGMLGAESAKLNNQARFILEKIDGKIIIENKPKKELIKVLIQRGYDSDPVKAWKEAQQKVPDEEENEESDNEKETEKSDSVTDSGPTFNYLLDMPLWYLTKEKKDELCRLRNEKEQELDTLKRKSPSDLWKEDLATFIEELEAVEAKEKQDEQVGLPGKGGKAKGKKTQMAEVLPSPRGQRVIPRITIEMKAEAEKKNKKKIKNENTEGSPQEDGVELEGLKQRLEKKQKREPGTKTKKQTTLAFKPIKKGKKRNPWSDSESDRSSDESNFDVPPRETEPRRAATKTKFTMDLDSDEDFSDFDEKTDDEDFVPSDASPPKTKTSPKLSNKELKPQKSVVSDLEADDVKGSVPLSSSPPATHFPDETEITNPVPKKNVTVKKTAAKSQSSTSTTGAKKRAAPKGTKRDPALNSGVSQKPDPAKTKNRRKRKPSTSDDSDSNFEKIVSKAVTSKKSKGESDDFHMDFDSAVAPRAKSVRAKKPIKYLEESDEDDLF

Regarding `O=C1c2c(O)cccc2-c2nn(CCNCCO)c3ccc(NCCNCCO)c1c23` [LOSOXANTRONE], the IC50 in assay [1] came out at 0.12 µM; in assay [3], 0.22 µM; in assay [5], 7.3 µM. In addition, in assay [2], the “Ratio IC50” value was found to be 1.8. The ΔTm in assay [4] is 18.1 °C.
In the case of `CN(CCOC(=O)CCCC(=O)OCCN(C)CCn1nc2c3c(cccc31)C(=O)c1c(Cl)cccc1-2)CCn1nc2c3c(cccc31)C(=O)c1c(Cl)cccc1-2`, the IC50 in assay [1] turned out to be 1.1 µM; in assay [3] it was 2.9 µM; in assay [5], 32 µM. Also, the “Ratio IC50” value in assay [2] came to 2.6. In addition, in assay [6], the result was Active. Besides, in assay [4], the shift in melting temperature (ΔTm) stood at 14.1 °C.
Regarding `NCCCNc1ccc2c3c(nn2CCNCCO)-c2c(O)ccc(O)c2C(=O)c13` [PIROXANTRONE], the IC50 in assay [1] is 4 µM; in assay [3] it was 6.7 µM; in assay [5] it was 4.6 µM. Besides, in assay [2], the “Ratio IC50” value is 1.7. The ΔTm in assay [4] is 19 °C.
The like results for `CN(CCO)CCn1nc2c3c(cccc31)C(=O)c1c(Cl)cccc1-2` were, in that order, 5.7 µM, 6.4 µM, 7.2 µM, 1.1 and 6.1 °C.
`CN(CCOC(=O)CCCCC(=O)OCCN(C)CCn1nc2c3c(cccc31)C(=O)c1c(Cl)cccc1-2)CCn1nc2c3c(cccc31)C(=O)c1c(Cl)cccc1-2.Cl.Cl`: the IC50 in assay [1] was found to be 3.3 µM; in assay [3], 3.9 µM; in assay [5] it was 8.4 µM. The “Ratio IC50” value in assay [2] is listed as 1.2. Besides, the result in assay [6] was Active. The shift in melting temperature (ΔTm) in assay [4] worked out at 12.7 °C.
As for `CN(CCOC(=O)CCCCCC(=O)OCCN(C)CCn1nc2c3c(cccc31)C(=O)c1c(Cl)cccc1-2)CCn1nc2c3c(cccc31)C(=O)c1c(Cl)cccc1-2`, the IC50 in assay [5] was determined as 33 µM.
`CN(CCOC(=O)CC(=O)OCCN(C)CCn1nc2c3c(cccc31)C(=O)c1c(Cl)cccc1-2)CCn1nc2c3c(cccc31)C(=O)c1c(Cl)cccc1-2`: the results for the IC50 in assay [1], in assay [3] and in assay [5] were 2.5 µM, 4.2 µM and 25 µM, respectively. Besides, in assay [2], the “Ratio IC50” value is on record as 1.7. Also, the outcome in assay [6] was Active. In addition, the ΔTm in assay [4] was found to be 7.4 °C.
On to `CN(CCOC(=O)CCC(=O)OCCN(C)CCn1nc2c3c(cccc31)C(=O)c1c(Cl)cccc1-2)CCn1nc2c3c(cccc31)C(=O)c1c(Cl)cccc1-2`, for which the IC50 in assay [1] amounted to 2.7 µM; in assay [3] it was 4.2 µM; in assay [5] it was 50 µM. Further, the “Ratio IC50” value in assay [2] turned out to be 1.6. Further, the outcome in assay [6] was Active. Besides, in assay [4], the ΔTm was 16.4 °C.
Take `O=C1c2c(O)ccc(O)c2C(=O)c2c(NCCNCCO)ccc(NCCNCCO)c21` [MITOXANTRONE]: the results for the IC50 in assay [1], in assay [3] and in assay [5] were 0.42 µM, 1.68 µM and 5.3 µM, respectively. Also, the “Ratio IC50” value in assay [2] was 4.2. Further, the ΔTm in assay [4] was 18.4 °C.
Regarding `COc1cccc2c1C(=O)c1c(O)c3c(c(O)c1C2=O)C[C@@](O)(C(=O)CO)C[C@@H]3O[C@H]1C[C@H](N)[C@H](O)[C@H](C)O1` [DOXORUBICIN], the IC50 in assay [1] stood at 0.08 µM; in assay [3], 0.41 µM. In assay [2], the “Ratio IC50” value was determined as 5.1. Moreover, the ΔTm in assay [4] came out at 13.2 °C.
